For experiment [1], the target named is T1, gp120HxBc2 (Human immunodeficiency virus type 1 group M subtype B, UniProt P04578).
T1 construct: gp120MN, gp120ADA, and gp120HxBc2 from Immune Technology; purchased Immune Technology
Kind of experiment: SPR: binding of gp120 to captured CX4-M1. Further details: species or system HIV-1. For orientation: Surface plasmon resonance follows binding to a sensor surface in real time, without labels.
Experimental: (§2) All measurements were performed using a Biacore X100 instrument in conjunction with the Biotin CAPture Kit (both from GE Healthcare). Sensor chip CAP was hybridized with a 1:10 dilution of CAPture reagent (streptavidin conjugate) in running buffer. […] For dehybridization, a regeneration solution of 6 M guanidinium chloride and 250 mM sodium hydroxide was used. HBS-N buffer (10 mM HEPES, 150 mM sodium chloride, pH 7.4) containing 0.05% Tween 20, as well as 100 mM (V3 loop peptides) or 2.5 mM (gp120) magnesium chloride, was used as running buffer. Measurement and data evaluation was performed using Biacore X100 Control Software (Version 2.0) and Biacore X100 Evaluation Software (Version 2.0), respectively.

Another experiment addresses T2, gp120MN (Human immunodeficiency virus type 1 group M subtype B, UniProt P05877).
T2 construct: gp120MN, gp120ADA, and gp120HxBc2 from Immune Technology; purchased Immune Technology
The experiment is described as follows: SPR: binding of gp120 to captured CX4-M1. Further details: species or system HIV-1.

In experiment [2] the target is T1, gp120HxBc2. The experiment is classed as binding, HIV-1. The settings on record: direct ELISA; variants 2.5 μM; gp120 8.3 nM in the presence of sCD4; relative to CX4-M1. Here is the method:
(§1) High binding microtiter plates (Immulon 2HB) were coated overnight at 4°C with streptavidin (4 μg/mL) in 0.1 M sodium carbonate buffer pH 9.5. Unspecific binding was blocked with 1% BSA in 0.1 M phosphate buffer pH 7.2, 200 μL/well for 1 h. All following steps were performed using 0.1 M phosphate buffer pH 7.2 containing 1% BSA (ELISA with V3 loop peptides) and 0.1% BSA (ELISA with gp120), respectively, as well as 0.01% Tween 20. Plates were incubated with 100 μL CX4-M1 variants (0.5 μM for binding to V3 loop peptides, 2.5 μM for binding to gp120), or biotin alone as a blank, for 2 h. Plates were then incubated for 3 h with fluoresceinylated V3 loop peptides (250 or 100 nM), or gp120 (8.3 nM, either with or without 8.3 nM sCD4). V3 loop peptides were detected using 100 μL/well mouse anti-fluorescein-HRP conjugate from antibodies online (3 μg/mL) for 1 h. Gp120 was detected using a two antibody system. Sheep anti-gp120 (D7324) from Aalto Bio Reagents (0.2 μg/mL) was added for 1 h, followed by a 1 h incubation with rabbit anti-sheep-HRP conjugate from Dianova (3 μg/mL), 100 μL/well. Plates were washed four times with 0.01% Tween 20 in 0.1 M phosphate buffer pH 7.2 (300 μL/well) after each incubation step. Plates were developed with 100 μL/well OPD (1 mg/mL) in the presence of 0.03% H2O2 for approximately 1.5 min (V3 loop peptide detection), or 3.5 min (gp120 detection) in the dark. After the reaction was stopped with 50 μL/well 2 M H2SO4, absorbances were read at 492 nm and corrected for the blank (sample with biotin instead of CX4-M1). All data points present means of at least duplicates.

A further experiment has as its system V3 loop peptide V3HxBc2. The experiment is described as follows: Direct ELISA: CX4-M1 variants binding to V3 loop peptide. Particulars: variants 0.5 μM, fluoresceinylated V3HxBc2, relative to CX4-M1. Also noted: species or system HIV-1. Here is the method: as §1
For experiment [3], the target named is T3, CXCR4 mimetic peptide CX4-M1 (Homo sapiens, UniProt P61073). The experiment is described as follows: Direct ELISA: fluoresceinylated V3 loop peptides binding to CX4-M1. Particulars: for effect of alanine substitution in V3HxBc2 on binding to CX4-M1: direct ELISA, relative to V3HxBc2; for binding of V3 loop peptide to CX4-M1 (direct ELISA): CX4-M1 0.5 μM on streptavidin plate, fluoresceinylated V3 loop peptides 250 or 100 nM, 3 h, absorbance 492 nm. Here is the method: as §1

Experiment [4] deals with T3, CXCR4 mimetic peptide CX4-M1. Kind of experiment: SPR: binding of V3 loop peptides to captured CX4-M1. The settings on record: SPR Biacore X100; CX4-M1 (2 μM) bound to streptavidin; V3 loop peptides 5–0.3 μM; HBS-N pH 7.4, 0.05% Tween 20, 100 mM MgCl2.
Experimental: as §2

Entries after “also recorded” stand apart in the source; their conditions may differ.

Experimental for gp120MN: as §2

On to `CC[C@H](C)[C@@H]1NC(=O)[C@H](Cc2ccc(O)cc2)NC(=O)[C@H](CCCNC(=N)N)NC(=O)[C@H](CC(=O)O)NC(=O)CCCCCNC(=O)CCNC(=O)CCCCCNC(=O)[C@H](CCCCN)NC(=O)[C@@H](NC(=O)[C@H](CC(C)C)NC(=O)[C@H](Cc2ccccc2)NC(=O)[C@H](CC(N)=O)NC(=O)CNC(=O)[C@H](Cc2ccccc2)NC(=O)[C@H](Cc2ccc(O)cc2)NC(=O)[C@H](Cc2c[nH]c3ccccc23)NC(=O)[C@H](CC(N)=O)NC(=O)[C@H](C)NC(=O)[C@@H](NC(=O)[C@H](C)NC(=O)[C@H](CC(=O)O)NC(C)=O)C(C)C)CSSC[C@@H](C(=O)N[C@@H](CC(=O)O)C(=O)N[C@@H](CCCNC(=N)N)C(=O)N[C@@H](Cc2ccccc2)C(=O)N[C@@H](Cc2ccc(O)cc2)C(=O)N2CCC[C@H]2C(=O)N[C@@H](CC(N)=O)C(=O)N[C@@H](CC(=O)O)C(=O)N[C@@H](CC(C)C)C(=O)N[C@@H](Cc2c[nH]c3ccccc23)C(=O)N[C@H](C(=O)NCCCCCC(=O)NCCC(=O)NCCCCCC(=O)N[C@@H](CC(=O)O)C(=O)N[C@@H](CO)C(=O)N[C@@H](Cc2ccccc2)C(=O)N[C@H](C(=O)N[C@@H](CC(C)C)C(=O)N[C@@H](CC(C)C)C(=O)N[C@@H](CCC(=O)O)C(=O)N[C@H](C(=O)N[C@H](C(=O)N[C@@H](CCCCN)C(=O)N[C@@H](CCC(N)=O)C(=O)NCC(=O)N[C@@H](CO)C(=O)N[C@@H](CCC(=O)O)C(=O)N[C@@H](Cc2ccccc2)C(=O)N[C@@H](CCC(=O)O)C(=O)N[C@@H](CC(N)=O)C(=O)N[C@H](C(=O)N[C@H](C(=O)N[C@@H](Cc2c[nH]cn2)C(=O)N[C@@H](CCCCN)C(=O)NCCCCCC(=O)N[C@@H](CCCCNC(=O)CCCC[C@@H]2SC[C@@H]3NC(=O)N[C@@H]32)C(N)=O)C(C)C)[C@@H](C)O)[C@@H](C)CC)[C@@H](C)CC)[C@@H](C)CC)C(C)C)NC1=O` [CX4-M1], for which the Kd on gp120HxBc2 [1] came out at 200 nM; at gp120MN it was 700 nM.
On to “Ac-ECL1-X-B-X-DRAICDRFYPNDLWV-X-B-X-ECL3-X-K(Bio)-NH2 (disulfide) [CX4-M1 Y184A, alanine substitution variant of ECL2 of CX4-M1]”, for which the “effect of alanine substitution in ECL2 of CX4-M1 on binding to gp120HxBc2” value (shortened to “effect of alanine substitution … to gp120HxBc2”) at gp120HxBc2 [2] is on record as “attenuated binding”. Moreover, the “effect of alanine substitution in ECL2 of CX4-M1 on binding to V3HxBc2” value (from here on “effect of alanine substitution … to V3HxBc2”) with V3 loop peptide V3HxBc2 was “enhancement of binding”.
In the case of “Ac-ECL1-X-B-X-DRYICDRFAPNDLWV-X-B-X-ECL3-X-K(Bio)-NH2 (disulfide) [CX4-M1 Y190A, alanine substitution variant of ECL2 of CX4-M1]”, the “effect of alanine substitution … to gp120HxBc2” value at gp120HxBc2 [2] is given as “attenuated binding”. Also, the “effect of alanine substitution … to V3HxBc2” value in the experiment on V3 loop peptide V3HxBc2 is reported as “enhancement of binding”.
For “Ac-ECL1-X-B-X-DRYICDRFYPNDAWV-X-B-X-ECL3-X-K(Bio)-NH2 (disulfide) [CX4-M1 L194A, alanine substitution variant of ECL2 of CX4-M1]”, the “effect of alanine substitution … to gp120HxBc2” value on gp120HxBc2 [2] is “negative effect on the affinity; also recorded: attenuated binding”. In the experiment with V3 loop peptide V3HxBc2, the “effect of alanine substitution … to V3HxBc2” value is given as “enhancement of binding”.
Turning to “Ac-ECL1-X-B-X-DRYICDRFYPNDLWA-X-B-X-ECL3-X-K(Bio)-NH2 (disulfide) [CX4-M1 V196A, alanine substitution variant of ECL2 of CX4-M1]”, the “effect of alanine substitution … to V3HxBc2” value in the experiment with V3 loop peptide V3HxBc2 is recorded as “enhancement of binding”.
As for “Fluo-X-G-X-CTRPNNNTRKRARIQRGPGRAFVTIGKIGNMRQAHC-NH2 (disulfide) [V3HxBc2 I307A, alanine scan variant of V3HxBc2]”, the “effect of alanine substitution in V3HxBc2 on binding to CX4-M1” value (from here on “effect of alanine substitution … to CX4-M1”) in experiment [3] is “strongly diminished binding”.
Take “Fluo-X-G-X-CTRPNNNTRKRIAIQRGPGRAFVTIGKIGNMRQAHC-NH2 (disulfide) [V3HxBc2 R308A, alanine scan variant of V3HxBc2]”: the “effect of alanine substitution … to CX4-M1” value in experiment [3] is “strongly diminished binding”.
Still for that read-out and setting: the result for “Fluo-X-G-X-CTRPNNNTRKRIRAQRGPGRAFVTIGKIGNMRQAHC-NH2 (disulfide) [V3HxBc2 I309A, alanine scan variant of V3HxBc2]” reads “strongly diminished binding”; that for “Fluo-X-G-X-CTRPNNNTRKRIRIQRGPGRAAVTIGKIGNMRQAHC-NH2 (disulfide) [V3HxBc2 F317A, alanine scan variant of V3HxBc2]”, “strongly diminished binding”; that for “Fluo-X-G-X-CTRPNNNTRKRIRIQRGPGRAFATIGKIGNMRQAHC-NH2 (disulfide) [V3HxBc2 V318A, alanine scan variant of V3HxBc2]”, “strongly diminished binding”.
Turning to “Fluo-X-G-X-CTRPNNNTRKRIRIQRGPGRAFVTAGKIGNMRQAHC-NH2 (disulfide) [V3HxBc2 I320A, alanine scan variant of V3HxBc2]”, the “effect of alanine substitution … to CX4-M1” value in experiment [3] is recorded as “strongly diminished binding”.
“Fluo-X-G-X-CTRPNNNTRKSIHI–GPGRAFYTTGEIIGDIRQAHC-NH2 (disulfide) [Peptide V3ADA, fluoresceinylated peptide presenting the V3 loop of gp120 from R5-tropic HIV-1 ADA]”: the “KD (V3 loop peptide) to CX4-M1” value in experiment [4] is on record as “No binding”.
For the compound “Fluo-X-G-X-CTRPNNNTRK––QRGPGRA–-GKIGNMRQAHC–NH2 (disulfide) [V3HxBc2 Δbeta]”, in experiment [3], the “binding of V3 loop peptide to CX4-M1 (direct ELISA)” value is recorded as “complete loss of binding”.
On the same count and under the same terms, the result for “Fluo-X-G-X––––-C^dRIRIQRGPGRAFVTIC^d–––––-NH2 (disulfide) [V3HxBc2 turn/beta, truncated variant of V3HxBc2 presenting the turn region and the two beta strands]” reads “retained some of the affinity”.
Still for that read-out and setting: next, “Fluo-X-G-X––––––-C^dQRGPGRAC^d–––––––-NH2 (disulfide) [V3HxBc2 turn, truncated variant of V3HxBc2 presenting only the turn region]”: “complete loss of binding”.
Take “Yc-X-G-X-CTRPNNNTRKSIHI–GPGRALYTTGEIIGDIRQAHC-NH2 (disulfide) [Peptide V3BAL, fluoresceinylated peptide presenting the V3 loop of gp120 from R5-tropic HIV-1 BAL]”: in experiment [4], the “KD (V3 loop peptide) to CX4-M1” value was “No binding”.

By Kd is commonly meant the equilibrium constant for the complex coming apart. A lower Kd goes with tighter binding.

The values above are taken from paper PMC3760305, “Mimicking Protein–Protein Interactions through Peptide–Peptide Interactions: HIV-1 gp120 and CXCR4” (Frontiers in Immunology, 2013).
